Source: the NIST ThermoML archive (doi:10.1016/j.fluid.2014.10.015)

Conditions: for mass density / viscosity: Liquid; for mass density: Vibrating tube method; for viscosity: Concentric cylinders viscometry; for surface tension liquid-gas: Pendant drop shape

CC(=O)[O-].CCCCn1cc[n+](C)c1 [1-butyl-3-methylimidazolium acetate]
Conditions | mass density [kg/m3] | viscosity [mPa·s]
273.15 K, 101 kPa | 1068.3 | –
273.15 K, 101.33 kPa | 1068.29 | –
273.15 K, 238 kPa | 1068.35 | –
273.15 K, 5002 kPa | 1070.1 | –
273.15 K, 10020 kPa | 1071.93 | –
273.15 K, 19968 kPa | 1075.5 | –
273.15 K, 29945 kPa | 1079.01 | –
273.15 K, 40001 kPa | 1082.46 | –
273.15 K, 49987 kPa | 1085.81 | –
273.15 K, 59935 kPa | 1089.07 | –
273.15 K, 69985 kPa | 1092.29 | –
273.15 K, 79928 kPa | 1095.39 | –
273.15 K, 90040 kPa | 1098.47 | –
273.15 K, 99956 kPa | 1101.42 | –
273.15 K, 109260 kPa | 1104.11 | –
273.15 K, 119925 kPa | 1107.11 | –
273.15 K, 129945 kPa | 1109.85 | –
273.15 K, 139956 kPa | 1112.52 | –
278.15 K, 101.33 kPa | – | 3157.5
278.17 K, 101.33 kPa | 1065.11 | –
283.12 K, 747 kPa | 1062.18 | –
283.13 K, 5103 kPa | 1063.85 | –
283.15 K, 101 kPa | 1061.93 | –
283.15 K, 101.33 kPa | – | 1818.3
283.15 K, 59694 kPa | 1083.4 | –
283.15 K, 70000 kPa | 1086.8 | –
283.15 K, 79404 kPa | 1089.83 | –
283.15 K, 90034 kPa | 1093.15 | –
283.15 K, 98553 kPa | 1095.75 | –
283.15 K, 109979 kPa | 1099.13 | –
283.15 K, 120352 kPa | 1102.1 | –
283.15 K, 129998 kPa | 1104.78 | –
283.15 K, 139706 kPa | 1107.39 | –
283.16 K, 9902 kPa | 1065.67 | –
283.16 K, 29987 kPa | 1073.08 | –
283.16 K, 39574 kPa | 1076.5 | –
283.16 K, 50021 kPa | 1080.12 | –
283.17 K, 101.33 kPa | 1061.96 | –
283.17 K, 19845 kPa | 1069.38 | –
293.13 K, 99228 kPa | 1090.59 | –
293.13 K, 110000 kPa | 1093.89 | –
293.13 K, 120552 kPa | 1097.03 | –
293.13 K, 130029 kPa | 1099.77 | –
293.13 K, 139794 kPa | 1102.51 | –
293.14 K, 19892 kPa | 1063.32 | –
293.14 K, 89975 kPa | 1087.68 | –
293.15 K, 101 kPa | 1055.7 | –
293.15 K, 101.33 kPa | 1055.7 | 689.5
293.15 K, 928 kPa | 1056.02 | –
293.15 K, 10042 kPa | 1059.57 | –
293.15 K, 29991 kPa | 1067.08 | –
293.15 K, 50024 kPa | 1074.3 | –
293.15 K, 59451 kPa | 1077.57 | –
293.15 K, 70011 kPa | 1081.16 | –
293.15 K, 79858 kPa | 1084.42 | –
293.16 K, 4731 kPa | 1057.51 | –
293.16 K, 39318 kPa | 1070.48 | –
298.13 K, 119989 kPa | 1094.32 | –
298.14 K, 19965 kPa | 1060.4 | –
298.14 K, 59928 kPa | 1075.03 | –
298.15 K, 101 kPa | 1052.59 | –
298.15 K, 101.33 kPa | 1052.59 | 447.5
298.15 K, 1002 kPa | 1052.95 | –
298.15 K, 10002 kPa | 1056.52 | –
298.15 K, 29947 kPa | 1064.19 | –
298.15 K, 49953 kPa | 1071.51 | –
298.15 K, 70002 kPa | 1078.49 | –
298.15 K, 89954 kPa | 1085.08 | –
298.15 K, 109924 kPa | 1091.31 | –
298.15 K, 129954 kPa | 1097.2 | –
298.15 K, 139957 kPa | 1100.01 | –
298.16 K, 5001 kPa | 1054.55 | –
298.16 K, 39934 kPa | 1067.89 | –
298.16 K, 80006 kPa | 1081.84 | –
298.16 K, 99359 kPa | 1088.06 | –
313.13 K, 101.33 kPa | 1043.35 | –
313.13 K, 20418 kPa | 1051.65 | –
313.13 K, 30021 kPa | 1055.44 | –
313.13 K, 39510 kPa | 1059.09 | –
313.13 K, 50039 kPa | 1063.04 | –
313.14 K, 59562 kPa | 1066.53 | –
313.14 K, 139775 kPa | 1092.44 | –
313.15 K, 101 kPa | 1043.35 | –
313.15 K, 101.33 kPa | – | 155
313.15 K, 70013 kPa | 1070.25 | –
313.15 K, 119744 kPa | 1086.54 | –
313.15 K, 129979 kPa | 1089.6 | –
313.16 K, 10222 kPa | 1047.54 | –
313.16 K, 79427 kPa | 1073.52 | –
313.16 K, 89989 kPa | 1077.08 | –
313.16 K, 98994 kPa | 1080.03 | –
313.16 K, 109981 kPa | 1083.53 | –
313.17 K, 5238 kPa | 1045.49 | –
313.18 K, 1226 kPa | 1043.82 | –
333.13 K, 101.33 kPa | 1031.21 | –
333.14 K, 9567 kPa | 1035.37 | –
333.15 K, 101 kPa | 1031.21 | –
333.15 K, 101.33 kPa | – | 53.5
333.15 K, 628 kPa | 1031.45 | –
333.15 K, 4971 kPa | 1033.37 | –
333.15 K, 20116 kPa | 1039.9 | –
333.15 K, 29979 kPa | 1044.01 | –
333.15 K, 49981 kPa | 1052.04 | –
333.15 K, 59681 kPa | 1055.77 | –
333.15 K, 70024 kPa | 1059.64 | –
333.15 K, 79610 kPa | 1063.12 | –
333.16 K, 39561 kPa | 1047.91 | –
333.16 K, 89976 kPa | 1066.77 | –
333.17 K, 99080 kPa | 1069.88 | –
333.17 K, 109991 kPa | 1073.48 | –
333.17 K, 120185 kPa | 1076.74 | –
333.17 K, 129974 kPa | 1079.75 | –
333.17 K, 139981 kPa | 1082.73 | –
343.16 K, 101.33 kPa | 1025.2 | –
353.12 K, 1410 kPa | 1019.9 | –
353.12 K, 139714 kPa | 1072.82 | –
353.13 K, 120068 kPa | 1066.76 | –
353.13 K, 130015 kPa | 1069.89 | –
353.14 K, 4959 kPa | 1021.56 | –
353.14 K, 99015 kPa | 1059.73 | –
353.14 K, 109983 kPa | 1063.46 | –
353.15 K, 101 kPa | 1019.28 | –
353.15 K, 101.33 kPa | 1019.28 | 24.4
353.15 K, 60022 kPa | 1045.25 | –
353.15 K, 70021 kPa | 1049.15 | –
353.15 K, 80038 kPa | 1052.92 | –
353.15 K, 90002 kPa | 1056.56 | –
353.16 K, 9951 kPa | 1023.86 | –
353.16 K, 49992 kPa | 1041.22 | –
353.17 K, 20183 kPa | 1028.49 | –
353.17 K, 29998 kPa | 1032.8 | –
353.18 K, 39534 kPa | 1036.88 | –
373.14 K, 19875 kPa | 1017.03 | –
373.14 K, 139805 kPa | 1063.23 | –
373.15 K, 101 kPa | 1007.58 | –
373.15 K, 101.33 kPa | – | 13.8
373.15 K, 9977 kPa | 1012.37 | –
373.15 K, 99180 kPa | 1049.72 | –
373.15 K, 110012 kPa | 1053.53 | –
373.15 K, 120856 kPa | 1057.2 | –
373.15 K, 129989 kPa | 1060.16 | –
373.16 K, 4871 kPa | 1009.91 | –
373.16 K, 29995 kPa | 1021.67 | –
373.16 K, 49968 kPa | 1030.42 | –
373.16 K, 59224 kPa | 1034.29 | –
373.16 K, 90022 kPa | 1046.37 | –
373.17 K, 2297 kPa | 1008.66 | –
373.17 K, 39711 kPa | 1025.99 | –
373.17 K, 69994 kPa | 1038.66 | –
373.18 K, 79589 kPa | 1042.42 | –
393.13 K, 5180 kPa | 998.69 | –
393.14 K, 60153 kPa | 1024.29 | –
393.14 K, 69980 kPa | 1028.4 | –
393.14 K, 80125 kPa | 1032.49 | –
393.14 K, 120002 kPa | 1047.09 | –
393.15 K, 101 kPa | 996.11 | –
393.15 K, 3086 kPa | 997.63 | –
393.15 K, 10081 kPa | 1001.16 | –
393.15 K, 20117 kPa | 1006.09 | –
393.15 K, 30011 kPa | 1010.81 | –
393.15 K, 40130 kPa | 1015.49 | –
393.15 K, 49985 kPa | 1019.89 | –
393.15 K, 90011 kPa | 1036.33 | –
393.15 K, 109214 kPa | 1043.37 | –
393.15 K, 130005 kPa | 1050.39 | –
393.16 K, 99789 kPa | 1039.98 | –
393.16 K, 139958 kPa | 1053.52 | –
413.12 K, 2006 kPa | 985.88 | –
413.12 K, 5092 kPa | 987.51 | –
413.13 K, 20186 kPa | 995.28 | –
413.14 K, 30014 kPa | 1000.15 | –
413.14 K, 40204 kPa | 1005.02 | –
413.14 K, 49979 kPa | 1009.54 | –
413.14 K, 60179 kPa | 1014.09 | –
413.14 K, 70022 kPa | 1018.33 | –
413.14 K, 99791 kPa | 1030.18 | –
413.14 K, 119957 kPa | 1037.4 | –
413.14 K, 139956 kPa | 1043.92 | –
413.15 K, 101 kPa | 984.86 | –
413.15 K, 79800 kPa | 1022.54 | –
413.15 K, 90200 kPa | 1026.45 | –
413.15 K, 109956 kPa | 1033.9 | –
413.15 K, 129954 kPa | 1040.74 | –
413.16 K, 10624 kPa | 990.4 | –

Conditions | surface tension liquid-gas [mN/m]
293.2 K | 37.87
298.2 K | 37.61
303.2 K | 37.36
308.2 K | 37.11
313.2 K | 36.88
318.2 K | 36.63
323.2 K | 36.42
328.2 K | 36.2
